“And” between values parts separate entries of the source, which are not always exact repeats. Identical values can stand only once.
Target: T1, human GSK-3β (Homo sapiens (Human), UniProt P49841)
Assay: LanthaScreen TR-FRET Eu Kinase binding and displacement assay
Conditions: five concentrations 100 μM to 10 nM, duplicate
Method: (§1) In a second assay, the same compounds were assayed at five concentrations ranging from 100 μM to 10 nM with ten-fold dilutions in duplicate. Compounds 1 to 7, 9, 11 and 13 to 26 were tested using the same first assay, compounds 8, 10, 12, and 27 to 31 were tested in another assay based on the binding and displacement of AlexaFluor® 647 labeled, ATP-competitive Kinase inhibitor scaffold using LanthaScreen™ TR-FRET technology Eu Kinase assay packet according to manufacturer's instruction (Life Technologies, Italy).
(§2) The IC50 values (concentration causing a half maximal inhibition of control specific activity), reported in table 4, were determined by non-linear regression analysis of the inhibition curves generated with mean replicate values using Hill equation curve fitting.

T1 sequence (P49841 whole entry): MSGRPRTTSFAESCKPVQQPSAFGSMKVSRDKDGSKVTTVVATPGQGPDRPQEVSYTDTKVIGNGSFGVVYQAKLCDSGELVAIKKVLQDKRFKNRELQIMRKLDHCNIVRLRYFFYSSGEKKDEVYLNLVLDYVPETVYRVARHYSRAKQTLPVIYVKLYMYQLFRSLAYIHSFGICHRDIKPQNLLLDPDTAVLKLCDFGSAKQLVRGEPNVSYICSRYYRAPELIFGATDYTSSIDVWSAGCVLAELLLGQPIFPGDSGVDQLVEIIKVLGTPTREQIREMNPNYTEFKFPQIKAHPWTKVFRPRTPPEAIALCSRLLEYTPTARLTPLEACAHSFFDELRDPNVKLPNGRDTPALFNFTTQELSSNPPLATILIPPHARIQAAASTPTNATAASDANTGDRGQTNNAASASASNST

| Structure (SMILES) | IC50 [nM] |
| --- | --- |
| COc1ccc2[nH]nc(C(=O)NCC3CCN(Cc4ccc(C(=O)O)nc4)CC3)c2c1 [Compound 29, Sodium 5-{[4-({[(5-methoxy-1H-indazol-3-yl)carbonyl]amino}methyl)piperidin-1-yl]methyl}pyridine-2-carboxylate] | 320 |
| COc1ccc2[nH]nc(C(=O)NCC3CCN(Cc4nc(C(=O)O)cs4)CC3)c2c1 [Compound 8, 2-{[4-({[(5-Methoxy-1H-indazol-3-yl)carbonyl]amino}methyl)piperidin-1-yl]methyl}-1,3-thiazole-4-carboxylic acid] | 170 |
| COc1ccc2[nH]nc(C(=O)NCC3CCN(Cc4noc(C(N)=O)n4)CC3)c2c1 [Compound 30, N-({1-[(5-carbamoyl-1,2,4-oxadiazol-3-yl)methyl]piperidin-4-yl}methyl)-5-methoxy-1H-indazole-3-carboxamide] | 310 |
| COc1ccc2[nH]nc(C(=O)NCC3CCN(Cc4nc(C(=O)O)co4)CC3)c2c1 [Compound 10, 2-{[4-({[(5-Methoxy-1H-indazol-3-yl)carbonyl]amino}methyl)piperidin-1-yl]methyl}-1,3-oxazole-4-carboxylic acid hydrate] | 310 |
| COc1ccc2[nH]nc(C(=O)NCC3CCN(Cc4ccnc(C(=O)O)c4)CC3)c2c1 [Compound 28, 4-{[4-({[(5-methoxy-1H-indazol-3-yl)carbonyl]amino}methyl)piperidin-1-yl]methyl}pyridine-2-carboxylic acid] | 450 |
| COc1ccc2[nH]nc(C(=O)NCC3CCN(CCC4CCCC(C)C4)CC3)c2c1 (stereo not drawn) [Compound 27, 5-methoxy-N-({1-[2-(3-methylcyclohexyl)ethyl]piperidin-4-yl}methyl)-1H-indazole-3-carboxamide] | 310 |

Target: T1, human GSK-3β
Assay: Activity on human GSK-3β, substrate phosphorylation measured by LANCE technology
Format: biochemical
Conditions: 10 μM, duplicate, human recombinant GSK-3β, 90 minutes at 22° C.
Method: Activity on human GSK-3β was assessed using the following methods (according to Meijer et al., Chem. Biol., 2003-10:1255-1266).
In a first screening assay, compounds were tested in duplicate at a concentration of 10 μM.
Human recombinant enzyme GSK-3β was incubated for 90 minutes at 22° C. in the presence of compounds or vehicle in a reaction buffer containing ATP plus 100 nM unphosphorylated specific substrate peptide (Ulight-[…]-amide). Substrate phosphorylation was measured by LANCE technology (PerkinElmer, Conn., USA).
The results, reported in the following Table 4, are expressed as a percent of inhibition of control specific activity obtained in the presence of the test compounds (as % inhibition at 10 μm).
as §1, §2

| Structure (SMILES) | % Inhibition [10 μM] [%] | inhibition at 10 µM [%] |
| --- | --- | --- |
| COc1ccc(CCN2CCC(CNC(=O)c3n[nH]c4ccc(OC)cc34)CC2)cc1 [Compound 2, 5-methoxy-N-({1-[2-(4-methoxyphenyl)ethyl]piperidin-4-yl}methyl)-1H-indazole-3-carboxamide] | 91 | > 90 |

Same assay, conditions: LANCE phosphorylation assay; five concentrations 100 μM to 10 nM, duplicate; read-out: IC50

| Structure (SMILES) | IC50 |
| --- | --- |
| CCOC(=O)c1nc(CN2CCC(CNC(=O)c3n[nH]c4ccc(OC)cc34)CC2)cs1 [Compound 13, Ethyl 4-{[4-({[(5-methoxy-1H-indazol-3-yl)carbonyl]amino}methyl)piperidin-1-yl]methyl}-1,3-thiazole-2-carboxylate] | 950 nM |
| COC(=O)c1ccoc1CN1CCC(CNC(=O)c2n[nH]c3ccc(OC)cc23)CC1 [Compound 14, Methyl 2-{[4-({[(5-methoxy-1H-indazol-3-yl)carbonyl]amino}methyl)piperidin-1-yl]methyl}furan-3-carboxylate] | 230 nM |
| COc1ccc(-c2ccc3[nH]nc(C(=O)NCC4CCN(Cc5ccc(C(=O)O)o5)CC4)c3c2)cc1 [Compound 18, 5-({4-[({[5-(4-Methoxyphenyl)-1H-indazol-3-yl]carbonyl}amino)methyl]piperidin-1-yl}methyl)furan-2-carboxylic acid hydrate] | 300 nM |
| COC(=O)c1coc(CN2CCC(CNC(=O)c3n[nH]c4ccc(Br)cc34)CC2)n1 [Compound 11, Methyl 2-{[4-({[(5-bromo-1H-indazol-3-yl)carbonyl]amino}methyl)piperidin-1-yl]methyl}-1,3-oxazole-4-carboxylate] | 360 nM |
| COc1ccc2[nH]nc(C(=O)NCC3CCN(Cc4ccc(OCc5ccccc5)cc4)CC3)c2c1 [Compound 5, N-({1-[4-(benzyloxy)benzyl]piperidin-4-yl}methyl)-5-methoxy-1H-indazole-3-carboxamide] | 350 nM |
| COc1ccc2[nH]nc(C(=O)NCC3CCN(CCCN4C[C@@H](C)O[C@@H](C)C4)CC3)c2c1 [Compound 26, N-[(1-{3-[(2R,6S)-2,6-dimethylmorpholin-4-yl]propyl}piperidin-4-yl)methyl]-5-methoxy-1H-indazole-3-carboxamide] | > 1000 nM and 2100 nM |
| COc1ccc2[nH]nc(C(=O)NCC3CCN(Cc4ccc(O)cc4)CC3)c2c1 [Compound 6, N-{[1-(4-hydroxybenzyl)piperidin-4-yl]methyl}-5-methoxy-1H-indazole-3-carboxamide] | 400 nM |
| COc1ncccc1-c1ccc2[nH]nc(C(=O)NCC3CCN(Cc4ccc(C(=O)O)o4)CC3)c2c1 [Compound 16, 5-({4-[({[5-(2-Methoxypyridin-3-yl)-1H-indazol-3-yl]carbonyl}amino)methyl]piperidin-1-yl}methyl)furan-2-carboxylic acid hydrate] | 360 nM |
| O=C(O)c1ccc(CN2CCC(CNC(=O)c3n[nH]c4ccc(-c5ccccc5F)cc34)CC2)o1 [Compound 20, 5-({4-[({[5-(2-Fluorophenyl)-1H-indazol-3-yl]carbonyl}amino)methyl]piperidin-1-yl}methyl)furan-2-carboxylic acid hydrate] | 20 nM |
| COc1ccc(CCN2CCC(CNC(=O)c3n[nH]c4ccc(OC)cc34)CC2)cc1 [Compound 2, 5-methoxy-N-({1-[2-(4-methoxyphenyl)ethyl]piperidin-4-yl}methyl)-1H-indazole-3-carboxamide] | < 600 nM and 560 nM |
| O=C(O)c1ccc(CN2CCC(CNC(=O)c3n[nH]c4ccc(-c5cccc(F)c5F)cc34)CC2)o1 [Compound 19, 5-({4-[({[5-(2,3-Difluorophenyl)-1H-indazol-3-yl]carbonyl}amino)methyl]piperidin-1-yl}methyl)furan-2-carboxylic acid] | 10 nM |
| COc1ccc2[nH]nc(C(=O)NCC3CCN(CCN4C[C@@H](C)O[C@@H](C)C4)CC3)c2c1 [Compound 25, N-[(1-{2-[(2R,6S)-2,6-dimethylmorpholin-4-yl]ethyl}piperidin-4-yl)methyl]-5-methoxy-1H-indazole-3-carboxamide] | > 1000 nM and 1400 nM |
| CCOC(=O)c1ccc(CN2CCC(CNC(=O)c3n[nH]c4ccc(OC)cc34)CC2)o1 [Compound 23, Ethyl 5-{[4-({[(5-methoxy-1H-indazol-3-yl)carbonyl]amino}methyl)piperidin-1-yl]methyl}furan-2-carboxylate] | 330 nM |
| COc1ccc2[nH]nc(C(=O)NCC3CCN(Cc4ccc(Cl)cc4Cl)CC3)c2c1 [Compound 3, N-{[1-(2,4-dichlorobenzyl)piperidin-4-yl]methyl}-5-methoxy-1H-indazole-3-carboxamide] | 310 nM |
| COC(=O)c1coc(CN2CCC(CNC(=O)c3n[nH]c4ccc(OC)cc34)CC2)n1 [Compound 9, Methyl 2-{[4-({[(5-methoxy-1H-indazol-3-yl)carbonyl]amino}methyl)piperidin-1-yl]methyl}-1,3-oxazole-4-carboxylate] | 210 nM |
| COc1ccc2[nH]nc(C(=O)NCC3CCN(Cc4ccc(C(F)(F)F)cc4)CC3)c2c1 [Compound 4, 5-methoxy-N-({1-[4-(trifluoromethyl)benzyl]piepridin-4-yl}methyl)-1H-indazole-3-carboxamide] | 640 nM |
| COc1ccc(-c2ccc3[nH]nc(C(=O)NCC4CCN(Cc5ccc(C(=O)O)o5)CC4)c3c2)cn1 [Compound 17, 5-({4-[({[5-(6-Methoxypyridin-3-yl)-1H-indazol-3-yl]carbonyl}amino)methyl]piperidin-1-yl}methyl)furan-2-carboxylic acid hydrate] | 20 nM |
| CCOC(=O)c1ccc(CN2CCC(CNC(=O)c3n[nH]c4ccc(Br)cc34)CC2)o1 [Compound 15, Ethyl 5-{[4-({[(5-bromo-1H-indazol-3-yl)carbonyl]amino}methyl)piperidin-1-yl]methyl}furan-2-carboxylate] | 260 nM |
| O=C(O)c1ccc(CN2CCC(CNC(=O)c3n[nH]c4ccc(Br)cc34)CC2)o1 [Compound 22, 5-{[4-({[(5-Bromo-1H-indazol-3-yl)carbonyl]amino}methyl)piperidin-1-yl]methyl}furan-2-carboxylic acid] | 210 nM |

From patent US9163013B2, “Use of 1H-indazole-3-carboxamide compounds as glycogen synthase kinase 3 beta inhibitors” (AZIENDE CHIMICHE RIUNITE ANGELINI FRANCESCO A.C.R.A.F. …, priority 2012, dated 2015)
